Earlier results in patent US20180169018A1, “Method for improving the dissolution profile of a biologically active material” (iCeutica Pty Ltd., priority 2009, published 2018).

Conditions: absorption by the body

Tmax: 4 to 5 h
SMILES: Cc1cnc(NC(=O)C2=C(O)c3ccccc3S(=O)(=O)N2C)s1 [Meloxicam, meloxicam]
